Measurements: patent US6548270B1, “DNA encoding human acid-sensing ion channel BNaC4 (ASIC4)” (Ortho-McNeil Pharmaceutical, Inc., priority 2000, dated 2003)

Tests used:
human BNaC4 = target: T1, human BNaC4 (Homo sapiens, UniProt Q96FT7); test: pH 4.5-elicited current in HEK293 cells transiently expressing human BNaC4 (whole cell patch clamp); format: cell-based; design: achieved by transfection of full-length human BNaC4 cDNA into a mammalian host cell; expressed in transfected cells; host or cells: HEK293, transient co-transfection of phBNaC4 (pCI Neo) and pEGFP; conditions: 500 uM amiloride; HEK293 cells transfected with hBNaC4; n=3
T1 sequence (Q96FT7 1-539): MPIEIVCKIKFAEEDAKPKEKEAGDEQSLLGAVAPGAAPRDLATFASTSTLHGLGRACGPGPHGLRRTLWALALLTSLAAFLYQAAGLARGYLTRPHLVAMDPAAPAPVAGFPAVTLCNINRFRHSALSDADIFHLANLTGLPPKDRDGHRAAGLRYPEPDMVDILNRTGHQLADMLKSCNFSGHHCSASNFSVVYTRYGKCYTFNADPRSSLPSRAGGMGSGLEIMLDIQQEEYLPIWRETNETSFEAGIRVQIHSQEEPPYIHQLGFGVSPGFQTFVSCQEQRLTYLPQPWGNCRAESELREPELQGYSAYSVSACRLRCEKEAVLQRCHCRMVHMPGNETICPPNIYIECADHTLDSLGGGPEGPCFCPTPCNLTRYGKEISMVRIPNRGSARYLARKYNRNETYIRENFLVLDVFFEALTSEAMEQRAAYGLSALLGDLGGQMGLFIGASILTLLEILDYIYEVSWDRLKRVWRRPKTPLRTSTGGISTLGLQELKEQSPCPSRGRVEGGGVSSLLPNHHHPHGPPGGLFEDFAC
Description: Human HEK293 cells were transfected with human BNaC4 (phBNaC4) together with the pEGFP vector (Clontech). Transient transfections 2 μg of phBNAC4 together with 1 μg pEGFP per 10^6 cells per 100 mm dish are performed using the Effectene transfection kit (Quiagen; 301425). Two to three days after transfection, cells are plated onto 12 mm round coverslips and maintained in growth media overnight. After one day, wells were tested for their whole cell response to application of low pH from nearby puffer pipettes using whole cell voltage clamp. Cells expressing GFP were tested (GFP-positive cells). Transfections with vector alone with GFP were used as controls (GFP-positive). […] The standard physiological saline (“Tyrodes”) contained: 130 mM NaCl, 4 mM KCl, 1 mM CaCl2, 1.2 mM MgCl2, and 10 mM hemi-Na-HEPES (pH 7.3, 295-300 mOsm as measured using a Wescor 5500 vapor-pressure (Wescor, Inc., Logan, Utah). Recording electrodes were fabricated from borosilicate capillary tubing (R6; Garner Glass, Claremont, Calif.), the tips are coated with dental periphery wax (Miles Laboratories, South Bend, Ind.), and have resistances of 1-2 MΩ when containing intracellular saline: 100 mM K-gluconate, 25 mM KCl, 0.483 mM CaCl2, 3 mM MgCl2, 10 mM hemi-Na-HEPES and 1 mM K4-BAPTA (100 nM free Ca^+2); pH 7.4, with dextrose added to achieve 290 mOsm). […]

Rat ASIC3 = target: T2, Rat ASIC3 (Rattus norvegicus, UniProt O35240); conditions: cited from earlier work
T2 sequence (O35240 1-533): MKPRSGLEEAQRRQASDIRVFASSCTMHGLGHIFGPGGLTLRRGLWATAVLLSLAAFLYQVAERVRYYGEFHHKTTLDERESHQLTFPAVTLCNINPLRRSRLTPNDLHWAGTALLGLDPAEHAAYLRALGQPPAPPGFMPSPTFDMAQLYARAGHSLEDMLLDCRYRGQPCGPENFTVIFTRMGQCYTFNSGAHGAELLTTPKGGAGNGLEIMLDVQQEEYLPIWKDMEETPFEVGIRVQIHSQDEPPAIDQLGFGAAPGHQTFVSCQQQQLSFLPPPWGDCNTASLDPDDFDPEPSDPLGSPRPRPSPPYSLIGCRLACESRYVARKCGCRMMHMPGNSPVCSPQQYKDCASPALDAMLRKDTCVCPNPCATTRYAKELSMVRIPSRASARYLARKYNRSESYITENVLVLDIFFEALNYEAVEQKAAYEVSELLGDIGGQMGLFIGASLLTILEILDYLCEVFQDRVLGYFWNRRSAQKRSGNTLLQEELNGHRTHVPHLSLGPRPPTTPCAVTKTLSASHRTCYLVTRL

block of the pH 4.5 effect (current elicited by pH 4.5) (human BNaC4): 98+/−2%
Compound: N=C(N)NC(=O)c1nc(Cl)c(N)nc1N [amiloride]
IC50 (Rat ASIC3; rat ASIC3 fast component, read-out: Amiloride sensitivity, K0.5, fast component): ~60 µM | effect of amiloride on slow component (Rat ASIC3; rat ASIC3 slow component): potentiated by amiloride (Waldmann
